Assay results from patent publication US5536729A, “Rapamycin formulations for oral administration” (priority 1994, dated 1996).

Assays:
Candida albicans = conditions: cited from earlier work
Microsporum gypseum = conditions: cited from earlier work
[1] = tested on: rejection in vivo in allograft transplantation; conditions: Calne 1989; Morris and Meiser 1989; cited from earlier work
tumor = conditions: in vivo; cited from earlier work
[2] = tested on: experimental allergic encephalomyelitis; conditions: model for multiple sclerosis; Martel 1977; cited from earlier work
adjuvant arthritis = conditions: model for rheumatoid arthritis; Martel 1977; cited from earlier work
IgE-like antibodies = conditions: Martel 1977; cited from earlier work
transplant rejection = conditions: useful in preventing transplant rejection; cited from earlier work
[3] = tested on: systemic lupus erythematosus; conditions: U.S. Pat. No. 5,078,999; cited from earlier work
pulmonary inflammation = conditions: U.S. Pat. No. 5,080,899; cited from earlier work
[4] = tested on: insulin dependent diabetes mellitus; conditions: Fifth Int. Conf. Inflamm. Res. Assoc. 1990; cited from earlier work
[5] = tested on: smooth muscle cell proliferation and intimal thickening; conditions: following vascular injury; Morris 1992; cited from earlier work
thymocyte = conditions: in vitro; cited from earlier work
[6] = cited from earlier work
[7] = set-up: species or system Cynomolgus monkeys; conditions: cynomolgus monkey, in vivo, po, 50 mg/kg
Procedure: Cynomolgus monkeys were administered the formulation above at a dose of 0.25 mg/kg of rapamycin and the following serum concentrations were determined at the indicated time after dosing.
Cynomolgus monkeys were administered the above formulation at a dose of 50 mg/kg of rapamycin and the following serum concentrations were determined at the indicated time after dosing.
Cynomolgus monkeys were administered this second comparative formulation at a dose of 50 mg/kg of rapamycin and the following serum concentrations were determined at the indicated time after dosing.

Compound	effect on growth of fungi (Candida albicans)	effect on growth of fungi (Microsporum gypseum)	inhibiting rejection in vivo in allograft transplantation [1]	antitumor activity (tumor)	efficacy in experimental allergic encephalomyelitis model [2]	efficacy in adjuvant arthritis model (adjuvant arthritis)	formation of IgE-like antibodies (IgE-like antibodies)	immunosuppressive effect (transplant rejection)	preventing or treating systemic lupus erythematosus [3]	preventing or treating pulmonary inflammation (pulmonary inflammation)	preventing or treating insulin dependent diabetes mellitus [4]	preventing or treating smooth muscle cell proliferation and intimal thickening [5]	thymocyte proliferation (thymocyte)	activity in vivo [6]	Rapamycin Concentration in Monkey Serum [7]
CO[C@H]1C[C@@H]2CC[C@@H](C)[C@@](O)(O2)C(=O)C(=O)N2CCCC[C@H]2C(=O)O[C@H]([C@H](C)C[C@@H]2CC[C@@H](O)[C@H](OC)C2)CC(=O)[C@H](C)/C=C(\C)[C@@H](O)[C@@H](OC)C(=O)[C@H](C)C[C@H](C)/C=C/C=C/C=C/1C [Rapamycin, rapamycin]	adversely affects the growth of fungi	adversely affects the growth of fungi	effectiveness of rapamycin in inhibiting rejection in vivo in allograft transplantation	antitumor activity	effective	effective	effectively inhibited	immunosuppressive effects	useful in preventing or treating	useful in preventing or treating	useful in preventing or treating	useful in preventing or treating	inhibit thymocyte proliferation in vitro	immunosuppressive, antifungal and antiinflammatory activity in vivo	
CO[C@H]1C[C@@H]2CC[C@@H](C)[C@@](O)(O2)C(=O)C(=O)N2CCCC[C@H]2C(=O)O[C@H]([C@H](C)C[C@@H]2CC[C@@H](O)[C@H](OC)C2)CC(=O)[C@H](C)/C=C(\C)[C@@H](O)[C@@H](OC)C(=O)[C@H](C)C[C@H](C)/C=C/C=C/C=C/1C [Comparative Example 2]															BDL (key: BDL: Below detection limit (detection limit = 0.006 μg/ml))
C=CC[C@@H]1/C=C(\C)C[C@H](C)C[C@H](OC)[C@H]2O[C@@](O)(C(=O)C(=O)N3CCCC[C@H]3C(=O)O[C@H](/C(C)=C/[C@@H]3CC[C@@H](O)[C@H](OC)C3)[C@H](C)[C@@H](O)CC1=O)[C@H](C)C[C@@H]2OC [FK-506]								effective as immunosuppressive agents							
